Data: US20240217957A1, “HETEROCYCLIC COMPOUND AND USE THEREOF” (TAKEDA PHARMACEUTICAL COMPANY LIMITED, priority 2022, published 2024)

These molecules were tested against T1, human OX2 receptor (Homo sapiens, UniProt O43614) (assay: Measurement of orexin type 2 receptor agonist activity (calcium fluorescence, Fluo-4 AM, FDSS)). Conditions: compound at 3 μM; CHO cells forcibly expressing human OX2 receptor; DMSO = 0%, 10 nM orexin A (human) = 100%.
T1 construct: expressed in transfected cells
T1 sequence (O43614 1-444): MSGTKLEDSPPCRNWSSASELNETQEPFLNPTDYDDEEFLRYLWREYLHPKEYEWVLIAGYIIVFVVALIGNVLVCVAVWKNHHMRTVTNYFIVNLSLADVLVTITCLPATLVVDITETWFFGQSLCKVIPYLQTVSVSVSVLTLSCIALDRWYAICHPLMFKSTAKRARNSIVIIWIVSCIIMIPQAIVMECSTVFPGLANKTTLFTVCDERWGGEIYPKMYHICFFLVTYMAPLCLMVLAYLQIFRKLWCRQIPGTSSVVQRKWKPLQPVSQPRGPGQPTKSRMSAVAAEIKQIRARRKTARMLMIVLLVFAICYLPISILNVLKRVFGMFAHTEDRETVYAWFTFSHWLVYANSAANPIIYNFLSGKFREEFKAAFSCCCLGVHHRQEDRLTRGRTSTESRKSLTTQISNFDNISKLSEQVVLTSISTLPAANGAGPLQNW
Assay type: cell-based
Outline: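 Agonist response is expressed as % of the fluorescence change given by 10 nM human orexin A, with DMSO as 0%, read over 1 min 40 s on FDSS after compound addition. Cells: stable human OX2 (1-444) CHO-K1 clones, dye-loaded with Fluo-4 AM plus probenecid in HEPES-buffered HBSS with 0.1% BSA.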

SMILES | OX2R agonist activity (3 μM, %) [%]
CCS(=O)(=O)N[C@@H]1CN(C2=NOC(COC)(c3ncc(F)cc3-c3c(F)cccc3F)C2)C[C@@H]1F (stereo partly drawn) [Example 132, N-[(3R,4S)-1-{5-[3-(2,6-difluorophenyl)-5-fluoropyridin-2-yl]-5-(methoxymethyl)-4,5-dihydro-1,2-oxazol-3-yl}-4-fluoropyrrolidin-3-yl]ethanesulfonamide] | 110
CCS(=O)(=O)N[C@@H]1CN(C2=NOC(c3ncc(Cl)cc3-c3c(F)cccc3F)C2)C[C@@H]1F (stereo partly drawn) [Example 133, N-[(3R,4S)-1-{5-[5-chloro-3-(2,6-difluorophenyl)pyridin-2-yl]-4,5-dihydro-1,2-oxazol-3-yl}-4-fluoropyrrolidin-3-yl]ethanesulfonamide] | 107
Cc1ncc(C2CC(N3C[C@@H](NS(C)(=O)=O)C(F)(F)C3)=NO2)c(-c2c(F)cccc2F)n1 (stereo partly drawn) [Example 134, N-[(3R)-1-{5-[4-(2,6-difluorophenyl)-2-methylpyrimidin-5-yl]-4,5-dihydro-1,2-oxazol-3-yl}-4,4-difluoropyrrolidin-3-yl]methanesulfonamide] | 103
CS(=O)(=O)N[C@@H]1CN(C2=NOC(CO)(c3ncc(C(F)F)cc3-c3c(F)cccc3F)C2)CC1(F)F (stereo partly drawn) [Example 135, N-[(3R)-1-{5-[5-(difluoromethyl)-3-(2,6-difluorophenyl)pyridin-2-yl]-5-(hydroxymethyl)-4,5-dihydro-1,2-oxazol-3-yl}-4,4-difluoropyrrolidin-3-yl]methanesulfonamide] | 115
CS(=O)(=O)N[C@@H]1CN(C2=NOC(c3ccc(F)c(F)c3-c3c(F)cccc3F)C2)C[C@@H]1F (stereo partly drawn) [Example 137, N-{(3R,4S)-4-fluoro-1-[5-(2′,5,6,6′-tetrafluoro[1,1′-biphenyl]-2-yl)-4,5-dihydro-1,2-oxazol-3-yl]pyrrolidin-3-yl}methanesulfonamide] | 102
CS(=O)(=O)N[C@@H]1CN(C2=NOC(c3c(F)cccc3-c3c(F)cccc3F)C2)C[C@@H]1F (stereo partly drawn) [Example 141, N-{(3R,4S)-4-fluoro-1-[5-(2′,3,6′-trifluoro[1,1′-biphenyl]-2-yl)-4,5-dihydro-1,2-oxazol-3-yl]pyrrolidin-3-yl}methanesulfonamide] | 97
CS(=O)(=O)N[C@@H]1CN(C2=NOC(CO)(c3ncc(Cl)cc3-c3c(F)cccc3F)C2)CC1(F)F (stereo partly drawn) [Example 142, N-[(3R)-1-{5-[5-chloro-3-(2,6-difluorophenyl)pyridin-2-yl]-5-(hydroxymethyl)-4,5-dihydro-1,2-oxazol-3-yl}-4,4-difluoropyrrolidin-3-yl]methanesulfonamide] | 102
CCS(=O)(=O)N[C@@H]1CN(C2=NOC(c3ncc(Cl)cc3-c3c(F)cccc3F)C2)CC1(F)F (stereo partly drawn) [Example 143, N-[(3R)-1-{5-[5-chloro-3-(2,6-difluorophenyl)pyridin-2-yl]-4,5-dihydro-1,2-oxazol-3-yl}-4,4-difluoropyrrolidin-3-yl]ethanesulfonamide] | 109
CS(=O)(=O)N[C@@H]1CN(C2=NOC(c3c(F)cc(F)cc3-c3c(F)cccc3F)C2)C[C@@H]1F (stereo partly drawn) [Example 144, N-{(3R,4S)-4-fluoro-1-[5-(2′,3,5,6′-tetrafluoro[1,1′-biphenyl]-2-yl)-4,5-dihydro-1,2-oxazol-3-yl]pyrrolidin-3-yl}methanesulfonamide] | 98
O=S(=O)(CF)N[C@@H]1CN(C2=NOC(c3ncc(Cl)cc3-c3c(F)cccc3F)C2)CC1(F)F (stereo partly drawn) [Example 148, N-[(3R)-1-{5-[5-chloro-3-(2,6-difluorophenyl)pyridin-2-yl]-4,5-dihydro-1,2-oxazol-3-yl}-4,4-difluoropyrrolidin-3-yl]-1-fluoromethanesulfonamide] | 98
CS(=O)(=O)N[C@@H]1CN(C2=NOC(CF)(c3ncccc3-c3c(F)cccc3F)C2)CC1(F)F (stereo partly drawn) [Example 150, N-[(3R)-1-{5-[3-(2,6-difluorophenyl)pyridin-2-yl]-5-(fluoromethyl)-4,5-dihydro-1,2-oxazol-3-yl}-4,4-difluoropyrrolidin-3-yl]methanesulfonamide] | 95
CCS(=O)(=O)N[C@@H]1CN(C2=NOC(CF)(c3ncccc3-c3c(F)cccc3F)C2)CC1(F)F (stereo partly drawn) [Example 151, N-[(3R)-1-{5-[3-(2,6-difluorophenyl)pyridin-2-yl]-5-(fluoromethyl)-4,5-dihydro-1,2-oxazol-3-yl}-4,4-difluoropyrrolidin-3-yl]ethanesulfonamide] | 107
CC1(c2ncc(Cl)cc2-c2ncc(F)cc2F)CC(N2C[C@@H](NS(C)(=O)=O)C(F)(F)C2)=NO1 (stereo partly drawn) [Example 152, N-{(3R)-1-[5-(5′-chloro-3,5-difluoro[2,3′-bipyridin]-2′-yl)-5-methyl-4,5-dihydro-1,2-oxazol-3-yl]-4,4-difluoropyrrolidin-3-yl}methanesulfonamide] | 107
CS(=O)(=O)N[C@@H]1CN(C2=NOC(CF)(c3ncc(C(F)F)cc3-c3c(F)cccc3F)C2)CC1(F)F (stereo partly drawn) [Example 153, N-[(3R)-1-{5-[5-(difluoromethyl)-3-(2,6-difluorophenyl)pyridin-2-yl]-5-(fluoromethyl)-4,5-dihydro-1,2-oxazol-3-yl}-4,4-difluoropyrrolidin-3-yl]methanesulfonamide] | 96
CS(=O)(=O)N[C@@H]1CN(C2=NOC(CF)(c3ncccc3-c3c(F)cc(F)cc3F)C2)CC1(F)F (stereo partly drawn) [Example 157, N-[(3R)-4,4-difluoro-1-{5-(fluoromethyl)-5-[3-(2,4,6-trifluorophenyl)pyridin-2-yl]-4,5-dihydro-1,2-oxazol-3-yl}pyrrolidin-3-yl]methanesulfonamide] | 92

The remaining lines, values ahead:

OX2R agonist activity (3 μM, %) [%] | SMILES
114 | CS(=O)(=O)N[C@@H]1CN(C2=NOC(c3c(F)ccc(F)c3-c3c(F)cccc3F)C2)CC1(F)F (stereo partly drawn) [Example 136, N-{(3R)-4,4-difluoro-1-[5-(2′,3,6,6′-tetrafluoro[1,1'-biphenyl]-2-yl)-4,5-dihydro-1,2-oxazol-3-yl]pyrrolidin-3-yl}methanesulfonamide]
105 | CS(=O)(=O)N[C@@H]1CN(C2=NOC(c3c(F)cc(F)cc3-c3ncc(F)cc3F)C2)CC1(F)F (stereo partly drawn) [Example 138, N-[(3R)-1-{5-[2-(3,5-difluoropyridin-2-yl)-4,6-difluorophenyl]-4,5-dihydro-1,2-oxazol-3-yl}-4,4-difluoropyrrolidin-3-yl]methanesulfonamide]
94 | CS(=O)(=O)N[C@@H]1CN(C2=NOC(c3c(F)cc(F)cc3-c3ncc(F)cc3F)C2)C[C@@H]1F (stereo partly drawn) [Example 139, N-[(3R,4S)-1-{5-[2-(3,5-difluoropyridin-2-yl)-4,6-difluorophenyl]-4,5-dihydro-1,2-oxazol-3-yl}-4-fluoropyrrolidin-3-yl]methanesulfonamide]
89 | CS(=O)(=O)N[C@@H]1CN(C2=NOC(c3ccc(F)c(F)c3-c3c(F)cccc3F)C2)CC1(F)F (stereo partly drawn) [Example 140, N-{(3R)-4,4-difluoro-1-[5-(2′,5,6,6′-tetrafluoro[1,1′-biphenyl]-2-yl)-4,5-dihydro-1,2-oxazol-3-yl]pyrrolidin-3-yl}methanesulfonamide]
105 | Cc1cc(F)c(C2CC(N3C[C@@H](NS(C)(=O)=O)C(F)(F)C3)=NO2)c(-c2c(F)cc(F)cc2F)c1 (stereo partly drawn) [Example 145, N-{(3R)-4,4-difluoro-1-[5-(2′,3,4′,6′-tetrafluoro-5-methyl[1,1′-biphenyl]-2-yl)-4,5-dihydro-1,2-oxazol-3-yl]pyrrolidin-3-yl}methanesulfonamide]
102 | Cc1cc(F)c(C2CC(N3C[C@@H](NS(C)(=O)=O)C(F)(F)C3)=NO2)c(-c2c(F)cccc2F)c1 (stereo partly drawn) [Example 146, N-{(3R)-4,4-difluoro-1-[5-(2′,3,6′-trifluoro-5-methyl[1,1′-biphenyl]-2-yl)-4,5-dihydro-1,2-oxazol-3-yl]pyrrolidin-3-yl}methanesulfonamide]
98 | CS(=O)(=O)N[C@@H]1CN(C2=NOC(CF)(c3ncc(F)cc3-c3c(F)cc(F)cc3F)C2)CC1(F)F (stereo partly drawn) [Example 147, N-[(3R)-4,4-difluoro-1-{5-(fluoromethyl)-5-[5-fluoro-3-(2,4,6-trifluorophenyl)pyridin-2-yl]-4,5-dihydro-1,2-oxazol-3-yl}pyrrolidin-3-yl]methanesulfonamide]
102 | Cc1cc(F)c(C2CC(N3C[C@@H](NS(C)(=O)=O)C(F)(F)C3)=NO2)c(-c2ncc(F)cc2F)c1 (stereo partly drawn) [Example 154, N-[(3R)-1-{5-[2-(3,5-difluoropyridin-2-yl)-6-fluoro-4-methylphenyl]-4,5-dihydro-1,2-oxazol-3-yl}-4,4-difluoropyrrolidin-3-yl]methanesulfonamide]
94 | CS(=O)(=O)N[C@@H]1CN(C2=NOC(c3c(F)cc(F)cc3-c3c(F)cccc3F)C2)CC1(F)F (stereo partly drawn) [Example 156, N-{(3R)-4,4-difluoro-1-[5-(2′,3,5,6′-tetrafluoro[1,1′-biphenyl]-2-yl)-4,5-dihydro-1,2-oxazol-3-yl]pyrrolidin-3-yl}methanesulfonamide]
